Data reported in patent publication US6979673B1, “Method and compositions for modulating somatolactogenic functions” (Trustees of the University of Pennsylvania, priority 1999, dated 2005).

Tests used:
PRL [1] = target: T1, PRL (Homo sapiens, UniProt P01236); experiment: Co-immunoprecipitation of admixed purified epitope-tagged proteins; type: binding; design: Full length PRL cDNA was generated by PCR; made in house; host or cells: Drosophila S2 cells (pAc5/V5-HisA); conditions: reducing agent or divalent cation facilitated the interaction
T1 sequence (P01236 29-227): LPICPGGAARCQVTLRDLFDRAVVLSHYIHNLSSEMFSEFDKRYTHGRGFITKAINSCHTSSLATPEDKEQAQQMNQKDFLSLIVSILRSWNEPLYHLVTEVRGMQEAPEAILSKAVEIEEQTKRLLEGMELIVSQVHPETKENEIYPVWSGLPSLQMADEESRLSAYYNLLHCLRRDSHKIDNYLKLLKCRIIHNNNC

Nb2 cells [2] = experiment: PRL-driven proliferation of Nb2 cells (3H-thymidine); type: cell-based, rat; conditions: for enhancement of PRL-driven growth vs cultures that received only PRL: Nb2 cells, biphasic, most prominent at 5–10 mM CypB and 50 pM PRL
Description: (§1) The effect of exogenous CypB on PRL-driven proliferation was examined with the rat Nb2 T-cell and the human T47D breast cancer line. […] This dose-dependent biphasic effect was most prominent at physiologic concentrations ([…]) of CypB and PRL (50 pM) found in human serum. […] To determine the effect of CypB on cellular growth driven by the larger family of cytokines, to which PRL belongs, proliferation driven by interleukin-2 (IL-2), IL-3 and GH was examined.
(§2) Nb2-cells (5×10^4; PRL-dependent, rat T-lymphoma) were plated in each well of 96 well plates in a defined DMEM-serum free medium (0.1 mM 2-mercaptoethanol, 1% penicillin/streptomycin, and 1% ITS+ (Calbiochem)). Cells were rested for 24 hours at 37° C. in this defined medium in the absence of PRL before the addition of 5–500 pM PRL (either as human pituitary isolated PRL, National Hormone and Pituitary Program, NIDDK; recombinant human PRL from E. coli, Genzyme; or recombinant human PRL from Drosophila S2 cells) alone or premixed with 1–2000 fold excess of purified CypB. Parallel studies were performed using human pituitary-derived GH (National Hormone and Pituitary Program, NIDDK). Cultures were incubated for 48 hours at 37° C. and proliferation was evaluated by the addition of 0.5 μCi of ^3H-thymidine for four hours followed by harvesting and scintillography. When stimulated with PRL alone, Nb2 cells yield sigmoid shaped growth curves that plateau at approximately 2 ng PRL/ml.

[3] = system: IL-2-driven proliferation; experiment: IL-2-driven proliferation; type: cell-based; conditions: varying concentration of CypB
Description: as §1

[4] = system: IL-3-driven proliferation; experiment: IL-3-driven proliferation; type: cell-based; conditions: varying concentration of CypB
Description: as §1

[5] = system: T47D human breast cancer cells; experiment: Nuclear retrotranslocation of PRL, anti-PRL indirect immunofluorescence; type: cell-based; conditions: added to defined T47D culture medium; CypB added to EGF-containing medium
Description: Experiments were performed to examine the ability of CypB to enhance nuclear retrotranslocation of PRL, and thereby PRL-driven proliferation.
The role of this sequence in the CypB-mediated retrotranslocation of PRL, and its associated enhancement of growth was tested by mutagenic approaches. The putative nuclear localization sequence of CypB was deleted in the mutant CypB-NT.

Nb2 cells [6] = experiment: GH-driven proliferation; type: cell-based, rat; conditions: physiological concentrations of CypB
Description: as §1
as §2, with “When stimulated with PRL alone, Nb2 cells yield sigmoid shaped growth curves that plateau at approximately 2 ng PRL/ml.” left out

PRL [7] = target: T1, PRL; experiment: Co-immunoprecipitation of PRL with CypB from human serum; type: binding

direct interaction with PRL (co-immunoprecipitation) (PRL [1]) | Substance | enhancement of PRL-driven growth vs cultures that received only PRL (Nb2 cells [2]) | effect on IL-2-driven proliferation [3] | enhancement of PRL-induced proliferation (Nb2 cells [2]; cell line not given) | effect on IL-3-driven proliferation [4] | T47D nuclei exhibiting anti-PRL immunofluorescence [5] | enhancement of GH-driven proliferation vs GH alone (Nb2 cells [6]) | co-immunoprecipitation of PRL from human serum (PRL [7])
failed to interact | CypA: recombinant form of the highly homologous cyclophilin family member CypA [reference compound] | did not result in any potentiation | – | – | – | – | – | –
interact directly | CypB: cyclophilin B, peptidyl prolyl isomerase, GenBank NM 000942, SEQ ID NO: 1; recombinant His-tagged | eight-fold | Neither IL-2- nor IL-3-driven proliferation was altered | failed to enhance | Neither IL-2- nor IL-3-driven proliferation was altered | 95–100% | forty-fold | direct co-immunoprecipitation of PRL with CypB from human serum
